# Results reported in patent US9908893B2 (Latvian Institute of Organic Synthesis, priority 2013, dated 2018).
# Where two headings read alike, the source gives them in different places.
# Tests used:
# [1] = tested on: A7R5 (rat aorta smooth muscle) cells; assay: Intracellular Ca2+ measurements, Fluo-4 NW Calcium Assay Kit, KCl-induced [Ca2+]i increase; type: cell-based; settings: for Ca^2+ antagonist effect compared with Verapamil: relative to Verapamil
# Experimental: Changes in intracellular [Ca^2+] concentration were studied using A7R5 (rat aorta smooth muscle) cells and Fluo-4 NW Calcium Assay Kit (“Invitrogen”, Sweden) according to manufacturer's instructions.
# Changes in intracellular [Ca^2+]i concentration were studied using Fluo-4 NW Calcium Assay Kit (“Invitrogen”, Sweden) accordingly to manufacturer's instructions. The A7R5 (rat aorta smooth muscle) cells were grown at 37° C. in a humidified atmosphere with 5% CO2/95% air in DMEM medium containing 2 mM glutamine and supplemented with 10% FBS. The cells were seeded into 96 well plate at 10,000 cells/well and incubated for 72 h. The cells were loaded with […] for 45 min. The Fura-4NW loaded cells were pre-incubated in the dark for 15 minutes with tested compounds at concentrations from 0.8 to 100 μM. Then A7R5 cells were pre-treated with 1.5 mM CaCl2 for 5 minutes and KCl (50 mM) was added to A7R5 cells to induce [Ca^2+]i increase. Amlodipine, the well-known calcium channel inhibitor was used as the positive control.
# [2] = Basal toxicity test, neutral red, alternative LD50 calculated from IC50; settings: mouse, LD50, alternative LD50 calculated by formula from IC50 in NIH 3T3 cells
# Experimental: A low therapeutic index of chemotherapy agents is due to affecting not only cancer formation but also normal cells.
# 9,000 NIH 3T3 cells/well were placed into 96-well plates for 24 h and then exposed to the test compound over a range of eight concentration (1-1000 μg/ml) for 24 h. Upon that, the cells were incubated with the neutral red dye for 4 h and then OD was determined at 540 nm. […] The IC50 values were calculated using the program Graph Pad Prism® 4.0
# [3] = Rattus norvegicus, A7R5, read-out: Ca^2+ A7R5, IC50
SMILES,"IC50 [1, 3]",LD50 at 24 h [2],Ca^2+ antagonist effect compared with Verapamil ([1]; A7R5 cells),"Ca^2+ A7R5, IC50 ([1]; A7R5 cells, KCl (50 mM) induced [Ca2+]i increase, compounds 0.8 to 100 μM)","IC50 ([1]; A7R5 cells, KCl (50 mM) induced [Ca2+]i increase, compounds 0.8 to 100 μM, read-out: Ca^2+ A7R5, IC50)"
"COc1ccc(C(=O)c2sc3nc(C)c(C(C)=O)c(-c4ccc(OC)c(OC)c4)c3c2N)cc1 [Compound 1, 5-Acetyl-3-amino-4-(3,4-dimethoxyphenyl)-2-(4-methoxybenzoyl)-6-methyl-thieno[2,3-b]pyridine]",24 ± 1.2 µM,> 2000 mg/kg,,,
"COc1ccc(C(=O)c2sc3nc(C)c(C(C)=O)c(-c4ccc(OC)c(OC)c4)c3c2N)c(OC)c1 [Compound 2, 5-Acetyl-3-amino-2-(2,4-dimethoxybenzoyl)-4-(3,4-dimethoxyphenyl)-6-methyl-thieno[2,3-b]pyridine]",15 ± 1.1 µM,> 2000 mg/kg,,,
"COc1ccc(C(=O)c2sc3nc(C)c(C(C)=O)c(-c4cc(OC)c(OC)c(OC)c4)c3c2N)cc1 [Compound 3, 5-Acetyl-3-amino-2-(4-methoxybenzoyl)-6-methyl-4-(3,4,5-trimethoxyphenyl)-thieno[2,3-b]pyridine]",14 ± 0.9 µM,> 2000 mg/kg,more than ten times lower,,
"COc1ccc(C(=O)c2sc3nc(C)c(C(C)=O)c(-c4cc(OC)c(OC)c(OC)c4)c3c2N)c(OC)c1 [Compound 4, 5-Acetyl-3-amino-2-(2,4-dimethoxybenzoyl)-6-methyl-4-(3,4,5-trimethoxyphenyl)-thieno[2,3-b]pyridine]",,1070 mg/kg,,No effect,
"COC(=O)c1c(C)nc2sc(C(=O)c3ccc(OC)cc3)c(N)c2c1-c1ccc(OC)cc1 [Compound 5, 3-Amino-2-(4-methoxybenzoyl)-4-(4-methoxyphenyl)-6-methyl-thieno[2,3-b]-pyridine-5-carboxylic acid methyl ester]",15.4 ± 2 µM,> 2000 mg/kg,,,
"COC(=O)c1c(C)nc2sc(C(=O)c3ccc(OC)cc3OC)c(N)c2c1-c1ccc(OC)c(OC)c1 [Compound 7, 3-Amino-2-(2,4-dimethoxybenzoyl)-4-(3,4-dimethoxyphenyl)-6-methyl-thieno[2,3-b]pyridine-5-carboxylic acid methyl ester]",5.6 ± 1.4 µM,1040 mg/kg,,,
"COC(=O)c1c(C)nc2sc(C(=O)c3ccc(F)cc3)c(N)c2c1-c1cc(OC)c(OC)c(OC)c1 [Compound 8, 3-Amino-2-(4-fluorobenzoyl)-6-methyl-4-(3,4,5-trimethoxyphenyl)thieno[2,3-b]-pyridine-5-carboxylic acid methyl ester]",3 ± 0.8 µM,> 2000 mg/kg,,,
"COC(=O)c1c(C)nc2sc(C(=O)c3ccc(Cl)cc3)c(N)c2c1-c1cc(OC)c(OC)c(OC)c1 [Compound 9, 3-Amino-2-(4-chlorobenzoyl)-6-methyl-4-(3,4,5-trimethoxyphenyl)thieno[2,3-b]-pyridine-5-carboxylic acid methyl ester]",3 ± 0.2 µM,1420 mg/kg,,,
"CCOC(=O)c1c(C)nc2sc(C(=O)c3ccc(OC)cc3)c(N)c2c1-c1ccc(O)cc1 [Compound 14, 3-Amino-4-(4-hydroxyphenyl)-2-(4-methoxybenzoyl)-6-methylthieno[2,3-b]-pyridine-5-carboxylic acid ethyl ester]",4.3 ± 0.7 µM,231 mg/kg,,,
"CCOC(=O)c1c(C)nc2sc(C(=O)c3ccc(OC)cc3)c(N)c2c1-c1ccc(O)c(OC)c1 [Compound 16, 3-Amino-4-(4-hydroxy-3-methoxyphenyl)-2-(4-methoxybenzoyl)-6-methyl-thieno[2,3-b]pyridine-5-carboxylic acid ethyl ester]",3.7 ± 0.4 µM,> 2000 mg/kg,more than ten times lower,,
"CCOC(=O)c1c(C)nc2sc(C(=O)c3ccc(OC)cc3)c(N)c2c1-c1ccc(OC)cc1 [Compound 17, 3-Amino-2-(4-methoxybenzoyl)-4-(4-methoxyphenyl)-6-methylthieno[2,3-b]-pyridine-5-carboxylic acid ethyl ester]",100 ± 11 µM,> 2000 mg/kg,,,
"CCOC(=O)c1c(C)nc2sc(C(=O)c3ccc(F)cc3)c(N)c2c1-c1ccc(OC)c(OC)c1 [Compound 18, 3-Amino-4-(3,4-dimethoxyphenyl)-2-(4-fluorobenzoyl)-6-methylthieno[2,3-b]-pyridine-5-carboxylic acid ethyl ester]",7 ± 1.2 µM,> 2000 mg/kg,,,
"CCOC(=O)c1c(C)nc2sc(C(=O)c3ccc(Cl)cc3)c(N)c2c1-c1ccc(OC)c(OC)c1 [Compound 19, 3-Amino-2-(4-chlorobenzoyl)-4-(3,4-dimethoxyphenyl)-6-methylthieno[2,3-b]-pyridine-5-carboxylic acid ethyl ester]",11 ± 0.7 µM,> 2000 mg/kg,,,
"CCOC(=O)c1c(C)nc2sc(C(=O)c3ccc(OC)cc3)c(N)c2c1-c1ccc(OC)c(OC)c1 [Compound 20, 3-Amino-4-(3,4-dimethoxyphenyl)-2-(4-methoxybenzoyl)-6-methylthieno[2,3-b]-pyridine-5-carboxylic acid ethyl ester]",3 ± 0.4 µM,2040 mg/kg,,,
"CCOC(=O)c1c(C)nc2sc(C(=O)c3ccc(OC)cc3OC)c(N)c2c1-c1ccc(OC)c(OC)c1 [Compound 21, 3-Amino-2-(2,4-dimethoxybenzoyl)-4-(3,4-dimethoxyphenyl)-6-methyl-thieno[2,3-b]pyridine-5-carboxylic acid ethyl ester]",1.2 ± 0.2 µM,2360 mg/kg,,,
"CCOC(=O)c1c(C)nc2sc(C(=O)c3ccc(F)cc3)c(N)c2c1-c1cc(OC)c(OC)c(OC)c1 [Compound 22, 3-Amino-2-(4-fluorobenzoyl)-4-(3,4,5-trimethoxyphenyl)-6-methylthieno[2,3-b]-pyridine-5-carboxylic acid ethyl ester]",20 ± 2 µM,> 2000 mg/kg,more than ten times lower,,
"CCOC(=O)c1c(C)nc2sc(C(=O)c3ccc(Cl)cc3)c(N)c2c1-c1cc(OC)c(OC)c(OC)c1 [Compound 23, 3-Amino-2-(4-chlorobenzoyl)-4-(3,4,5-trimethoxyphenyl)-6-methylthieno[2,3-b]-pyridine-5-carboxylic acid ethyl ester]",4 ± 0.4 µM,2700 mg/kg,,,
"CCOC(=O)c1c(C)nc2sc(C(=O)c3ccc(OC)cc3)c(N)c2c1-c1ccc(OCC)cc1 [Compound 26, 3-Amino-4-(4-ethoxyphenyl)-2-(4-methoxybenzoyl)-6-methylthieno[2,3-b]-pyridine-5-carboxylic acid ethyl ester]",> 100 µM,> 2000 mg/kg,,,
"CCOC(=O)c1c(C)nc2sc(C(=O)c3ccc(OC)cc3)c(N)c2c1-c1ccc(Cl)cc1 [Compound 28, 3-Amino-4-(4-chlorophenyl)-2-(4-methoxybenzoyl)-6-methylthieno[2,3-b]-pyridine-5-carboxylic acid ethylester]",> 100 µM,> 2000 mg/kg,,,
"CCCCOC(=O)c1c(C)nc2sc(C(=O)c3ccc(OC)cc3)c(N)c2c1-c1cc(OC)c(OC)c(OC)c1 [Compound 30, 3-Amino-2-(4-methoxybenzoyl)-6-methyl-4-(3,4,5-trimethoxyphenyl)thieno[2,3-b]-pyridine-5-carboxylic acid butyl ester]",5 ± 0.7 µM,> 2000 mg/kg,,,
"COCCOC(=O)c1c(C)nc2sc(C(=O)c3ccc(OC)cc3)c(N)c2c1-c1ccc(OC)cc1 [Compound 31, 3-Amino-2-(4-methoxybenzoyl)-4-(4-methoxyphenyl)-6-methylthieno[2,3-b]-pyridine-5-carboxylic acid 2-methoxyethyl ester]",21 ± 4 µM,> 2000 mg/kg,,,
"COCCOC(=O)c1c(C)nc2sc(C(=O)c3ccccc3)c(N)c2c1-c1cc(OC)c(OC)c(OC)c1 [Compound 32, 3-Amino-2-benzoyl-6-methyl-4-(3,4,5-trimethoxyphenyl)thieno[2,3-b]pyridine-5-carboxylic acid 2-methoxyethyl ester]",2.2 ± 0.3 µM,> 2000 mg/kg,more than ten times lower,,
"COCCOC(=O)c1c(C)nc2sc(C(=O)c3ccc(OC)cc3)c(N)c2c1-c1cc(OC)c(OC)c(OC)c1 [Compound 34, 3-Amino-2-(4-methoxybenzoyl)-6-methyl-4-(3,4,5-trimethoxyphenyl)thieno[2,3-b]-pyridine-5-carboxylic acid 2-methoxyethyl ester]",3.1 ± 0.4 µM,> 2000 mg/kg,more than ten times lower,,
"CCCOCCOC(=O)c1c(C)nc2sc(C(=O)c3ccc(OC)cc3OC)c(N)c2c1-c1cc(OC)c(OC)c(OC)c1 [Compound 37, 3-Amino-2-(2,4-dimethoxybenzoyl)-6-methyl-4-(3,4,5-trimethoxyphenyl)-thieno[2,3-b]pyridine-5-carboxylic acid 2-propoxyethyl ester]",,,,,> 100 µM
"COc1ccc(C(=O)c2sc3nc(C)cc(C)c3c2N)c(OC)c1 [Compound 45, 3-Amino-4,6-dimethyl-2-(2,4-dimetoxybenzoyl)thieno[2,3-b]pyridine]",,959 mg/kg,,,
